In publication PMC11304236, “A Novel Drug Candidate for Sepsis Targeting Heparanase by Inhibiting Cytokine Storm” (Advanced Science, 2024):

How the values were obtained:
HPA = target: T1, HPA (Homo sapiens, UniProt Q9Y251); assay: Homogeneous time-resolved fluorescence (HTRF) HPA inhibition in vitro; type: biochemical
T1 sequence (Q9Y251 158-543 limits assumed): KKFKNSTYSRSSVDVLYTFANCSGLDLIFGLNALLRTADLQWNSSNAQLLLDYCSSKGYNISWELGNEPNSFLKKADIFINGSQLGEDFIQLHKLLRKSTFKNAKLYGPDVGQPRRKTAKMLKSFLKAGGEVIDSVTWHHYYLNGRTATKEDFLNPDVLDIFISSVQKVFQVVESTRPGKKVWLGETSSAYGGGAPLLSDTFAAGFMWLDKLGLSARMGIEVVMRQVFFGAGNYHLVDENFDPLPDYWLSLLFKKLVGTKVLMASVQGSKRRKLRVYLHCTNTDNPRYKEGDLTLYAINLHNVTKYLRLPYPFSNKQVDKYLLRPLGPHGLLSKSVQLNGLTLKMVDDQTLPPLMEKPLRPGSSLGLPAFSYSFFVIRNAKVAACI
T1 sequence (Q9Y251 36-109 limits assumed): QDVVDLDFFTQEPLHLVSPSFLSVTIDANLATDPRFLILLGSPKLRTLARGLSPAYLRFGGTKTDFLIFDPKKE
Description: Active HPA was diluted with Buffer A to 120 ng mL^−1, biot‐HS‐K was diluted with Buffer B (pH 5.5) to 1.4 ng mL^−1, and SA‐d2 was diluted with Buffer C (pH 7.5) to 1 µg mL^−1, CV122 samples were diluted with Buffer A to different concentration gradients. Add 4 µL of sample solution and 3 µL of HPA solution or Buffer A to the micro‐96‐well plate. After incubating at 37 °C for 10 min, the enzyme reaction was started by adding 3 µL of biot‐HS‐K and incubating at 37 °C for 30 min. Then add 10 µL of SA‐d2 solution or Buffer C. After incubating for 15 min at room temperature, the HTRF signal was detected by a microplate reader, which was excited at 384 nm and emitted at 620 nm and 665 nm. The fluorescence intensity ratio of 665 nm/620 nm was used to calculate the average energy transfer rate (ΔF%) of each sample. The positive control system composed of biot‐HS‐K and SA‐d2 should produce the largest ΔF%, while the background fluorescence intensity of the negative control (biot‐HS‐K) should produce the smallest ΔF%.^[ [45] ^]

[1] = test system: M1 macrophages (F4/80+CD86+); assay: Flow cytometry of M1 macrophages in organs of LPS-induced septic mice; type: in vivo, mouse; conditions: 12 h after LPS 40 mg/kg i.p.
Description: (§1) Each group of mice was euthanized 24 h after LPS injection, spleens were harvested, red blood cells were lysed to detect splenocyte apoptosis, and the ratio of CD3^+CD4^+ T cells, CD3^+CD8^+ T cells, CD3^−CD19^+ B cells in spleen cells and lymph nodes quantified. Antibodies were: FITC‐Annexin V and PI; APC‐CD3, FITC‐CD4, PE‐CD8a, and PE‐CD19. Each group of mice was euthanized 12 h after LPS injection, Lung, kidney, and spleens were harvested, red blood cells were lysed to detect the ratio of macrophages in multiple organs, Antibodies were: FITC anti‐mouse F4/80; APC anti‐mouse CD86. Flow cytometry was used to quantify the adhesion molecules ICAM‐1 and VCAM‐1 on the surface of RAW264.7 cells and HUVECs. CV122 (50 µM) was incubated with the cells for 3 h, LPS (5 µg mL^−1) and TNF‐α (20 ng mL^−1) were used to stimulate the cells for 1 h, and the cells were collected. FITC anti‐mouse CD54 antibody and AF647 anti‐mouse CD106 antibody were incubated for 30 min at room temperature in the dark, PBS was added at 1000 rpm, and the cells were centrifuged for 7 min. A 200‐mesh copper mesh was used to filter the cells into a flow cytometer, and a flow cytometer (BD Biosciences) was used for detection.
Figure S6. M1 macrophages in multiple organs of LPS-induced septic mice. […] All results are expressed as mean ± SD (n = 3), *p < 0.05,**p < 0.01, ***p < 0.001, ****p < 0.0001; ns, not significant. […]

[2] = test system: splenocytes and lymph node cells; assay: Flow cytometry of splenocyte apoptosis and T/B cells in LPS-induced septic mice; type: in vivo, mouse; conditions: 24 h after LPS
Description: as §1

HUVECs = assay: Cell surface glycocalyx of TNF-α-stimulated HUVECs (WGA-FITC, atomic force microscopy); type: cell-based, human
Description: (§2) Lungs were harvested from LPS‐induced and CLP‐induced sepsis model mice, and frozen sections were prepared. HUVECs and RAW264.7 macrophages were incubated with CV122 for 3 h, and TNF‐α (20 ng mL^−1) and LPS (5 µg mL^−1) were used to stimulate cells for 1 h. Lung tissue, HUVECs, and RAW264.7 macrophages were fixed with 4% paraformaldehyde for 10 min before permeabilization with 0.5% Triton X‐100 for 10 min. The membrane was sealed with 4% skimmed milk powder and incubated at room temperature for 50 min. Primary antibodies were rabbit anti‐heparanase polyclonal antibodies overnight at 4 °C. The diluent of the secondary antibody FITC‐WGA‐lectin was kept at room temperature and protected from light for 1 h. Nuclei were stained with DAPI. After 120 s, images were acquired with a confocal microscope (LSM 800, Zeiss, Germany).
(§3) HUVECs and RAW264.7 cells in the logarithmic growth phase were digested, centrifuged, and then plated in a six‐well plate at a density of 1 × 10[5] cells per well. CV122 was incubated for 3 h, and cells were stimulated with LPS (5 µg mL^−1) and TNF‐α (20 ng mL^−1) for 5 h. Cell‐covered slides were carefully removed and placed on the stage of the atomic force microscope with needle parameters: elastic coefficient 0.4 N M^−1, sensitivity 65.63 nm V^−1, with otherwise the usual atomic force microscope (Bruker, Billerica, MA) parameters used.

RAW264.7 macrophages [3] = assay: Cell surface glycocalyx of LPS-stimulated RAW264.7 macrophages (WGA-FITC, atomic force microscopy); type: cell-based, mouse
Description: as §2, §3

CCHFV = type: in vivo, mouse
RAW264.7 macrophages [4] = assay: Cell survival assay (CCK-8) in RAW264.7 macrophages; conditions: 50 to 200 µM

SMILES: COC1OC(COS(=O)(=O)O)C(OC2OC(C(=O)O)C(OC3OC(COS(=O)(=O)O)C(OC4OC(C(=O)O)C(OC5OC(COS(=O)(=O)O)C(O)C(O)C5NS(=O)(=O)O)C(OS(=O)(=O)O)C4O)C(OS(=O)(=O)O)C3NS(=O)(=O)O)C(O)C2OS(=O)(=O)O)C(O)C1NS(=O)(=O)O (stereo not drawn) [CV122]
- IC50 rank in HPA inhibition screening (HPA; CV114-CV123 compared with fondaparinux, ****p < 0.0001): lowest IC50 values
- IC50 (HPA; HTRF, in vitro): 2.97 µM
- percentage of M1 macrophages in kidneys and spleen [1]: significantly inhibited the percentage of M1 macrophages
- percentage of M1 macrophages (F4/80+CD86+) in the lung ([1]; **p < 0.01): significantly reduced by CV122
- CD3+CD4+ T cells and CD3+CD8+ T cells in spleen [2]: recovered by CV122 to close to control levels
- CD3−CD19+ B cells in spleen and inguinal lymph nodes [2]: recovered upon treatment with CV122
- splenocyte apoptosis (FITC-Annexin V and PI) [2]: significantly reduced apoptosis
- glycocalyx integrity by WGA-FITC fluorescence (HUVECs): rescued glycocalyx integrity
- glycocalyx structure / surface roughness by atomic force microscopy (HUVECs): reduced glycocalyx damage and resulted in a smoother surface
- glycocalyx by WGA-FITC fluorescence (RAW264.7 macrophages [3]): significantly protected the glycocalyx of macrophages
- glycocalyx structure by atomic force microscopy (RAW264.7 macrophages [3]): protected against disruption of the glycocalyx structure
- spleen pathological damage (H&E) (CCHFV; 7 d after infection): spleen congestion and edema were slightly reduced
- body weight (CCHFV; CCHFV-infected IFNAR−/− mice): slightly higher body weights
- survival rate (CCHFV; CV122 20 mg kg−1 s.c. at 2, 3, 4 and 5 days after infection, IFNAR−/− mice, 8 day or longer observation, control 20%): 80%
- effect on survival of RAW264.7 macrophages (RAW264.7 macrophages [4]): no significant inhibitory effect
